Assay results from patent US6844466B2, “Alkyl urea retinoid agonists” (Syntex (U.S.A.) LLC, priority 2001, dated 2005).
Several values for one entry are separate records, joined by “and”; a condition that tells them apart may be missing. Identical values can stand only once.

Key:
[1] = Effect of RAR agonists on plasma triglyceride levels; assay type: in vivo, male, Wistar Han rats; conditions: rat, oral
Description: Sixty male, Wistar Han rats (Charles Rivers Laboratories) were used in this experiment. The received weight of the rats varied between 200-250 gm. The compounds used in this study were formulated in Miglyol 812, Batch 000719, Product #6330 (Condea) with 0.01% BHA and 0.01% BHT. Three RAR agonists, illustrated below, were compared with regards to their effects on triglyceride levels. Compounds 39 and 40 are prior art compounds (see, Hashimoto, Yuichi; Kagechika, Hiroyuki; Kawachi, Emiko; Fukasawa, Hiroshi; Saito, Go; Shudo, Koichi. “Evaluation of differentiation-inducing activity of retinoids on human leukemia cell lines HL-60 and NB4” Biol. Pharm. Bull. (1996), 19(10), 1322-1328; and Takagi, Kanji; Suganuma, Masami; Kagechika, Hiroyuki; Shudo, Koichi; Ninomiya, Mitsuo; Muto, Yasutoshi; Fujiki, Hirota. “Inhibition of ornithine decarboxylase induction by retinobenzoic acids in relation to their binding affinities to cellular retinoid-binding proteins” J. Cancer Res. Clin. Oncol. (1988), 114(3), 221-4, while compound 27 is a compound prepared in Example 7, herein.
Animals were dosed with compounds 27, 39 and 40 or vehicle for two weeks (one 1.0 mL dose a day, total of 10 doses) by oral administration. Doses were 0.3 mg/kg, 1 mg/kg and 3 mg/kg. Animals were weighed twice a week for monitoring gross toxicity (% weight change and mucutaneous).
Animals were fasted for at least 4 hours before terminal blood collection. At the end of the experiment the animals were placed under deep anesthesia using pentobarbital ip (30-40 mg). Five to six ml of blood was collected via cardiac puncture for blood chemistry (Quality Clinical Lab, Mountain View, Calif.) and PK analysis (terminal). Animals were euthanized by exsanguination from the abdominal aorta or cervical dislocation. Plasma was collected and stored at −20
Quantitation of triglycerides contained in rat plasma may be performed using established procedures. […] Hydrogen peroxide may be quantitated […] in a Hitachi 911 Chemistry Analyzer. […]

[2] = test system: retinoic acid receptor (α, β and γ); experiment: Transactivation of retinoic acid receptors; assay type: cell-based; conditions: compared to prior art compounds 39 and 40
Description: Transactivation, which is the ability of a retinoid to activate gene transcription when gene transcription is initiated by the binding of a ligand to the particular retinoic acid receptor being tested, may be determined by using methods described in the art (Apfel et al., Proc. Natl. Acad. Sci., 1992, 89, 7129; Bernard et al., Biochem. And Biophys. Res. Comm., 1992, 186, 977 which is herein incorporated by reference).

[3] = test system: rat model of elastase-induced emphysema; experiment: Alveolar repair in the rat model of elastase-induced emphysema; assay type: in vivo, male Sprague Dawley rats; conditions: oral once per day, lower dosage levels (0.01 or 0.001 mg/kg), p≦0.05, FIG. 1
Description: Compounds of the invention may be evaluated for their effects on alveolar repair in the rat model of elastase-induced emphysema (Massaro et al., Nature, 1997, Vol. 3, No. 6: 675; Massaro et al., U.S. Pat. No. 5,998,486). Preferably, animals are divided into treatment groups of approximately eight. Lung inflammation and alveolar damage may be induced in male Sprague Dawley rats by a single instillation of about 2 U/gram body mass of pancreatic elastase (porcine derived, Calbiochem).
Animals may be treated with a compound of the invention formulated Miglyol at convenient oral dosage ranges (preferably, between about 10.0 mg/kg and 0.0001 mg/kg) and will be dosed orally once per day starting 21 days post injury. Control groups are challenged with elastase and 21 days later are treated with vehicle (Miglyol) for 14 days. Animals were sacrificed 24 hours after the last dose by exsanguination under deep anesthesia. Blood was collected at time of exsanguination for analysis.
The lungs are inflated with 10% neutral buffered formalin by intratracheal instillation at a constant rate (1 ml/gram body mass/min). […] The mean value/treatment group may be determined by summing the average area/rat for all eight rats/treatment groups and repair of elastase damage expressed as percentage of repair relative to the elastase+vehicle treated group from the following calculation: […]

melting point | Structure (SMILES) | selectivity of transactivation among RAR α, β and γ [2] | also measured
– | CN(C(=O)Nc1ccc(C(=O)O)cc1)c1ccc2c(c1)C(C)(C)CCC2(C)C [Compound 40, reference compound] | pan-agonists | dose dependence of triglyceride levels ([1]; two weeks, 0.3, 1 and 3 mg/kg): triglyceride levels increasing with increasing dosage
– | CCCCCN(C(=O)Nc1ccc(C(=O)O)cc1)c1ccc2c(c1)C(C)(C)CCC2(C)C [Compound 27, 4-[3-pentyl-3-(5,5,8,8-tetramethyl-5,6,7,8-tetrahydro-naphthalen-2-yl)-ureido]-benzoic acid] | unexpectedly selective at activating transcription activity through the gamma receptor | alveolar repair [3]: significant; triglyceride levels expressed as a percentage relative to vehicle control (100%) ([1]; two weeks (10 doses), at the higher dose, FIG. 2): < 100%; elevation of triglyceride levels relative to vehicle control (in words) ([1]; two weeks, 0.3, 1 and 3 mg/kg): did not significantly elevate triglycerides levels
– | CC1(C)CCC(C)(C)c2cc(NC(=O)Nc3ccc(C(=O)O)cc3)ccc21 [Compound 39, reference compound] | pan-agonists | –
150.9 to 157.4 °C | CCCCCN(C(=O)Nc1ccc(C(=O)O)cc1F)c1ccc2c(c1)C(C)(C)CCC2(C)C [Compound 57, 3-fluoro-4-[3-pentyl-3-(5,5,8,8-tetramethyl-5,6,7,8-tetrahydro-naphthalen-2-yl)-ureido]-benzoic acid] | – | –
166 to 167 °C and 165.8 to 167.2 °C | CCCCCCCCN(C(=O)Nc1ccc(C(=O)O)cc1)c1ccc2c(c1)C(C)(C)CCC2(C)C [Compound 25, 4-[3-octyl-3-(5,5,8,8-tetramethyl-5,6,7,8-tetrahydro-naphthalen-2-yl)-ureido]-benzoic acid] | – | –
175 to 186 °C | CCCN(C(=O)Nc1ccc(C(=O)O)cc1)c1ccc2c(c1)C(C)(C)CCC2(C)C [Compound 55] | unexpectedly selective at activating transcription activity through the gamma receptor | –
176 to 177 °C | CCCCCCN(C(=O)Nc1ccc(C(=O)O)cc1)c1ccc2c(c1)C(C)(C)CCC2(C)C [Compound 13, 4-[3-hexyl-3-(5,5,8,8-tetramethyl-5,6,7,8-tetrahydro-naphthalen-2-yl)-ureido]-benzoic acid] | – | –
